Values after ≈ are worked out from the molar mass of the structure shown.
Legend:
[1] = system: Vibrio parahaemolyticus; assay: Antimicrobial activity against Vibrio parahaemolyticus assessed as bacterial growth inhibition by broth dilution assay; assay type: functional
[2] = system: Vibrio harveyi; assay: Antimicrobial activity against Vibrio harveyi assessed as bacterial growth inhibition by microplate reader assay; assay type: functional
[3] = system: Vibrio anguillarum; assay: Antibacterial activity against Vibrio anguillarum assessed as bacterial growth inhibition; assay type: functional
[4] = system: Vibrio harveyi; assay: Antibacterial activity against Vibrio harveyi assessed as bacterial growth inhibition; assay type: functional
[5] = system: Vibrio parahaemolyticus; assay: Antimicrobial activity against Vibrio parahaemolyticus assessed as bacterial growth inhibition; assay type: functional
[6] = system: Vibrio harveyi; assay: Antimicrobial activity against Vibrio harveyi assessed as bacterial growth inhibition; assay type: functional
[7] = system: Vibrio anguillarum; assay: Antimicrobial activity against Vibrio anguillarum assessed as bacterial growth inhibition by broth dilution assay; assay type: functional
[8] = system: Vibrio alginolyticus; assay: Antimicrobial activity against Vibrio alginolyticus assessed as bacterial growth inhibition by broth dilution assay; assay type: functional
[9] = system: Vibrio harveyi; assay: Antimicrobial activity against Vibrio harveyi QDIO-7 assessed as bacterial growth inhibition by microplate reader assay; assay type: functional
[10] = system: Vibrio anguillarum; assay: Antimicrobial activity against Vibrio anguillarum assessed as bacterial growth inhibition by microplate reader assay; assay type: functional
[11] = system: Vibrio parahaemolyticus; assay: Antimicrobial activity against Vibrio parahaemolyticus ATCC 17802 assessed as bacterial growth inhibition by microplate reader assay; assay type: functional
[12] = system: Vibrio parahaemolyticus; assay: Antimicrobial activity against Vibrio parahaemolyticus assessed as zone of inhibition; assay type: functional
[13] = system: Vibrio anguillarum; assay: Antimicrobial activity against Vibrio anguillarum assessed as bacterial growth inhibition; assay type: functional
[14] = system: Vibrio harveyi; assay: Antimicrobial activity against Vibrio harveyi BB120 assessed as bacterial growth inhibition by bioluminescence based Quorum-Sensing assay; assay type: functional, organism-based
[15] = system: Vibrio vulnificus; assay: Antimicrobial activity against Vibrio vulnificus assessed as bacterial growth inhibition; assay type: functional
[16] = system: Vibrio vulnificus; assay: Antimicrobial activity against Vibrio vulnificus MCCC E1758 assessed as bacterial growth inhibition by resazurin dye based assay; assay type: functional

CO[C@@H]1CC(=O)C/C=C/[C@@H](O)CC(=O)O[C@H](C)C1
MIC [1]: 12.5 µM

CC(C)/C=C1\NC(=O)[C@H](CCC(N)=O)n2c1nc1ccccc1c2=O [AURANTIOMIDE C]
MIC [2]: 8 µg/mL

C[C@@H]1Cc2ccc(O)c(O)c2C(=O)O1
MIC [3]: 0.5 µg/mL
MIC [4]: 32 µg/mL (≈ 165 µM)

CC[C@@H](C)[C@H](/C=C/C(=C/CC[C@@H](C)C[C@H](C)[C@H]1C[C@@H](O)[C@H](C)CC/C=C/[C@H](C)C/C=C(\C)[C@H](O)CCC[C@@H](O)[C@H](C)/C=C/C(=O)O1)CO)OC(C)=O
MIC [5]: 1.56 µg/mL

O=C1NCc2nc3ccccc3c(=O)n2C1Cc1c[nH]c2ccccc12 (stereo not drawn)
MIC [6]: 16 µg/mL

CCCCCc1cc(O)c2ccccc2n1
MIC [4]: 4 µg/mL (≈ 18.6 µM)

CC[C@@H](C)[C@@H](O)/C=C/C(C)=C/CC[C@@H](C)C[C@H](C)[C@H]1C[C@@H](O)[C@H](C)CC/C=C/[C@H](C)C/C=C(\C)[C@H](O)CCC[C@@H](O)[C@H](C)/C=C/C(=O)O1
MIC [5]: 1.56 µg/mL

C=C(C)[C@H]1COc2c(C)cc3oc4c(C[C@H](O)C(C)(C)O)ccc(O)c4c(=O)c3c2[C@@H]1O [TAJIXANTHONEHYDRATE]
MIC [1]: 1.56 µM
MIC [7]: 1.56 µM
MIC [8]: 1.56 µM

CC(C)/C=C1\NC(=O)[C@@H](Cc2ccccc2)n2c1nc1ccccc1c2=O
MIC [9]: 64 µg/mL

COc1ccc2c3c4n(c2c1)C(C=C(C)C)OOC(C)(C)C[C@@H]4N1C(=O)[C@@H]2CCCN2C(=O)[C@]1(O)[C@H]3O (stereo partly drawn)
MIC [6]: 16 µg/mL

C=C(C)[C@H]1COc2c(C)cc3oc4c([C@@H](OC)[C@@H](O)C(=C)C)ccc(O)c4c(=O)c3c2[C@@H]1O
MIC [1]: 1.56 µM
MIC [7]: 1.56 µM
MIC [8]: 1.56 µM

CC(=O)O[C@H]1CC[C@@]2(C)[C@@H](CC[C@H]3Cc4c([nH]c5ccccc45)[C@@]32C)[C@]1(C)CC[C@@H](O)C(C)(C)O
MIC [1]: 12.5 µM
MIC [7]: 12.5 µM
MIC [8]: 12.5 µM

C[C@@]12C=C[C@@H]3C[C@H](CO)CC[C@@H]3[C@]1(C)C(=O)C=CO2
MIC [2]: 4 µg/mL
MIC [10]: 4 µg/mL

O=C1c2cccc(O)c2C(=O)c2c1cc(O)c(C(CO)CCO)c2O (stereo not drawn)
MIC [11]: 24 µg/mL

COc1cc(O)c2c(c1)C(=O)C1=C(C[C@@H](O)[C@@](C)(O)C1)C2=O [ALTERSOLANOL B]
MIC [5]: 25 µM
MIC [1]: 2.5 µg/mL
MIC [7]: 5 µg/mL

CC[C@H]1/C=C/CC[C@@H](C)[C@H](O)C[C@H]([C@@H](CO)C[C@H](C)CC[C@H](O)[C@H](C)/C=C/[C@H](O)C(C)C)OC(=O)/C=C/[C@](C)(O)[C@H](O)CCC[C@@H](O)[C@H](C)CC1
MIC [5]: 1.56 µg/mL

CC[C@@H](C)[C@@H](O)/C=C/C=C/CC[C@@H](C)C[C@H](C)[C@H]1C[C@@H](O)[C@H](C)CC/C=C/[C@H](C)C/C=C(\C)[C@H](O)CCC[C@@H](OC)[C@H](C)/C=C/C(=O)O1
MIC [5]: 1.56 µg/mL

C=C(C)[C@H]1COc2c(C)cc3oc4c([C@@H](OC)[C@@H](O)C(=C)C)ccc(O)c4c(=O)c3c2[C@@H]1OC(C)=O
MIC [1]: 1.56 µM
MIC [7]: 1.56 µM
MIC [8]: 1.56 µM

C/C(=C\[C@H]1OC(=O)[C@@H](C)[C@@H]1C)[C@H]1CCC2=C3C=CC4=CC(=O)CC[C@]4(C)[C@H]3CC[C@@]21C
MIC [1]: 25 µg/mL
MIC [7]: 25 µg/mL
MIC [8]: 25 µg/mL

C[C@@]1(O)C=C[C@H]2C[C@@H](CO)CC[C@@H]2[C@@]1(C)C(=O)CCO
MIC [2]: 4 µg/mL
MIC [10]: 4 µg/mL

O=C1c2cc(O)cc(O)c2C(=O)c2c1cc(O)c(C(CO)CCO)c2O (stereo not drawn)
MIC [11]: 12 µg/mL

CC[C@H](C)[C@@H]1NC(=O)[C@@H](Cc2ccccc2)n2c1nc1c(c2=O)C=CC=CO1
MIC [9]: 64 µg/mL

C=C(C)[C@H]1COc2c(C)cc3oc4c([C@@H](OC)[C@@H](O)C(C)(C)O)ccc(O)c4c(=O)c3c2[C@@H]1OC(C)=O
MIC [1]: 1.56 µM
MIC [7]: 1.56 µM
MIC [8]: 1.56 µM

CC(C)(O)[C@H](O)CC[C@]1(C)[C@@H](O)CC[C@@]2(C)[C@H]1CC[C@H]1Cc3c([nH]c4ccccc34)[C@@]12C
MIC [1]: 6.3 µM
MIC [7]: 3.1 µM
MIC [8]: 3.1 µM

C[C@H]1[C@H]([C@@]2(C)CCC([C@](C)(O)CO)O2)CC[C@@]1(C)O (stereo partly drawn)
inhibition zone (IZ) [12]: 6.2 mm

C=C(C)[C@@H]1COc2c(C)cc3oc4c(C[C@H](OC(C)=O)C(C)(C)O)ccc(O)c4c(=O)c3c2[C@@H]1O
MIC [1]: 1.56 µM
MIC [7]: 1.56 µM
MIC [8]: 1.56 µM

C=C(C)C1(O)OC(=O)C=C1OC (stereo not drawn) [PENICILLIC ACID]
MIC [3]: 0.5 µg/mL
MIC [4]: 32 µg/mL (≈ 188 µM)

CC(C)/C=C1/NC(=O)[C@H](CCC(N)=O)n2c1nc1ccccc1c2=O
MIC [2]: 8 µg/mL

C[C@@H]1CC[C@@H]2[C@H](C=C[C@](C)(O)[C@@]2(C)C(=O)CCO)C1
MIC [2]: 4 µg/mL
MIC [10]: 4 µg/mL

C/C=C/CC/C=C/c1c(O)cc(CC=C(C)C)c(O)c1C=O
MIC [13]: 65 µM
MIC [6]: 65 µg/mL

CCCCCC(=O)NCCc1ccccc1
IC50 [14]: 99 µM

Nc1ccccc1C(=O)C[C@H]1NC(=O)[C@H]2CCCN2C1=O
MIC [6]: 50 µM

CCCCc1cc(O)c2ccccc2n1
MIC [4]: 0.5 µg/mL (≈ 2.48 µM)

C=C(C)[C@H]1COc2c(C)cc3oc4c(C[C@H](OC(C)=O)C(C)(C)O)ccc(O)c4c(=O)c3c2[C@@H]1O
MIC [1]: 1.56 µM
MIC [7]: 1.56 µM
MIC [8]: 1.56 µM

CCC[C@@H]1C(C)=C[C@@H]2C[C@H](C)CC[C@H]2[C@]1(C)C(=O)C1=C(O)C(=O)NC1=O
MIC [13]: 12.5 µg/mL

COc1cc(O)c2c(=O)c(C)c(C)oc2c1OC
MIC [15]: 64 µg/mL (≈ 256 µM)

CCOC(=O)C[C@H](O)COC(=O)/C=C/CCl
IC50 [14]: 17.6 µM

C[C@H](O)[C@H](Cl)C1=C[C@H](O)[C@@H](C)OC1=O [CHLOROHYDROASPYRONE A]
MIC [3]: 0.5 µg/mL
MIC [4]: 32 µg/mL (≈ 145 µM)

C[C@H](O)/C=C1/C(=O)O[C@H]([C@@H](C)O)[C@@H]1O
MIC [3]: 0.5 µg/mL
MIC [4]: 32 µg/mL (≈ 158 µM)

O=C1N[C@@H]2c3nc4ccccc4c(=O)n3[C@H]1CC21C(=O)Nc2ccccc21 (stereo partly drawn)
MIC [6]: 16 µg/mL

C[C@H]1CC[C@H]2[C@@H](C=C[C@H](C)[C@]2(C)C(=O)CCO)[C@@H]1O
MIC [2]: 4 µg/mL
MIC [10]: 4 µg/mL

COc1cc(O)c2c(c1)C(=O)C1=C(C2=O)[C@H](O)[C@@H](O)[C@@](C)(O)C1
MIC [5]: 25 µM

CCOC(=O)Cc1cc(O)cc(O)c1C(=O)CC
MIC [16]: 15.6 µg/mL (≈ 61.8 µM)

CC(O)C(Cl)C1=C[C@H]([C@H](C)O)OC1=O (stereo partly drawn)
MIC [3]: 0.5 µg/mL
MIC [4]: 32 µg/mL (≈ 145 µM)

COc1cc(O)c2c(c1)C(=O)[C@@H]1C[C@](C)(O)[C@H](O)[C@H](O)[C@]1(O)C2=O
MIC [5]: 50 µM

COc1c(Cl)c(O)cc2c1C(=O)c1c(O)cc(COC(C)=O)cc1C2=O
MIC [1]: 10 µM

CCOC(=O)Cc1cc(OC)cc(OC)c1C(=O)CC
MIC [16]: 15.6 µg/mL (≈ 55.7 µM)

C[C@@H]1C[C@H](O)CC(=O)C/C=C/[C@@H](O)CC(=O)O1
MIC [1]: 25 µM

CO[C@@H]1CC(=O)/C=C/C[C@@H](C)OC(=O)C[C@H](O)C1
MIC [1]: 25 µM

O=C1CC[C@@H](c2ccc(O)c3c2C(=O)CCC3=O)c2cccc(O)c21
MIC [9]: 4 µg/mL

O=C(/C=C/CCl)O[C@@H]1COC(=O)C1
IC50 [14]: 5.6 µM

C[C@@H](O)CCCCC[C@H](C)[C@@H]1C=CC(=O)O1
MIC [1]: 25 µM

C[C@H](Cl)[C@@H](O)C1=C[C@H](O)[C@@H](C)OC1=O [CHLOROHYDROASPYRONE B]
MIC [3]: 0.5 µg/mL
MIC [4]: 32 µg/mL (≈ 145 µM)

C/C(=C\[C@H]1OC(=O)[C@H](C)[C@@H]1C)[C@H]1CCC2=C3C=CC4=CC(=O)CC[C@]4(C)[C@H]3CC[C@@]21C
MIC [1]: 25 µg/mL
MIC [7]: 25 µg/mL
MIC [8]: 25 µg/mL

COC(=O)CC[C@H]1C(=O)N/C(=C\C(C)C)c2nc3ccccc3c(=O)n21
MIC [2]: 8 µg/mL

COc1cc(O)c2c(=O)c(C)c(C)oc2c1O
MIC [15]: 32 µg/mL (≈ 135 µM)

COc1ccc(O)c(-c2cc(OC)ccc2O)c1
MIC [1]: 10 µg/mL

COC(=O)C[C@H](O)COC(=O)/C=C/CCl
IC50 [14]: 14.6 µM

CC(C)CCC[C@@](C)(O)c1ccc(C(=O)O)cc1O
MIC [5]: 5 µM
MIC [3]: 10 µM

CC[C@H](C)C[C@H](C)/C=C(\C)c1cc(=O)cc(O)o1
MIC [1]: 6.25 µg/mL

C[C@H]1C[C@H](O)[C@H]2[C@@H](C=C[C@@](C)(O)[C@]2(C)C(=O)CCO)C1
MIC [2]: 4 µg/mL
MIC [10]: 4 µg/mL

CC(C)=CCc1ccc(O)c(C=O)c1
MIC [13]: 65 µM
MIC [6]: 65 µg/mL
